Columns and labels:
[1] = tested on: SUDHL6 xenograft tumor tissue; test: Immunofluorescence on paraffin-embedded tumor sections after one IKE dose; assay type: in vivo, NCG mice; conditions: 4 h after one dose of IKE
Experimental: NCG mice 6-weeks of age were injected with 10 million SUDHL-6 cells subcutaneously. Visible tumors appeared after 2 weeks. Tumor size was measured by electronic caliper every 2 days and calculated using the formula: 0.5×length×width^2. After another 2 weeks, mice were randomly separated into group of 3 mice per cage with roughly tumor size (1200 mm^3). Mice were dosed at 50 mg/kg IKE, 22 mg/kg IKE, 22 mg/kg IKE PEG-PLGA nanoparticles (equal to 600 mg/kg PEG-PLGA) using IP at one time and samples were collected at 0, 1, 2, 3, 4, 6, and 24 h with three mice per time point. Mice were dosed with Vehicle 1 and Vehicle 2 (600 mg/kg PEG-PLGA) by IP and samples were collected at 24 h. Mice were euthanized using a CO2 gas chamber before xenograft dissection and cardio puncture. Plasma samples were collected and analyzed as described above. […] After drying, the samples were resuspended in 100 μL of methanol and analyzed on the LC-MS with each sample analyzed twice. […] The concentration of IKE in the sample was determined by comparison against a standard curve of IKE in the range of 25 to 2,500 ng/mL. […] Pharmacokinetics parameters of IKE were assessed using Prism fitted with Lognormal of one phase exponential decay. […]
Tumor tissue was fixed in 4% paraformaldehyde (PFA) for 24 h at 4° C. followed by washing three times with PBS. […] Then the above steps were followed for staining and quantification.

SUDHL6 cells = test: Reduced glutathione measurement in cell culture (Fluorometric-Green); assay type: cell-based; conditions: Homo sapiens, SU-DHL-6, 24 hours, average of three experiments, read-out: IC50 of GSH depletion
Experimental: 2.4 million cells were incubated with DMSO, IKE, or β-mercaptoethanol (β-Me) at a density of 0.2 million cells/mL for 24 h. Cells were collected and washed with cold PBS once. Cell number was counted by Vi-Cell. Cells were resuspended in ice cold RIPA buffer (Thermo Fisher Scientific, 89900) with 100 μL/one million cells. Samples were centrifuged for 15 min at 4° C. at 17,000×g. The resulting supernatant was deproteinized using a trichloroacetic acid and sodium bicarbonate solution and kept on ice. The sample was diluted with assay buffer provided in GSH/GSSG Ratio Detection Assay Kit (Abcam, ab13881) ten-fold. Reduced glutathione (GSH) levels were determined using Fluorometric-Green provided in the kit following the manufacture's protocol. 384-well (Corning) low volume black flat bottom polystyrene non-treated microplates 1230F99 were used in this experiment.

IC50 (SUDHL6 cells): 34 nM
Compound: CC(C)Oc1ccc(C(=O)Cn2ccnc2)cc1-n1c(CN2CCN(C(=O)COc3ccc(Cl)cc3)CC2)nc2ccccc2c1=O [IKE, Imidazole ketone erastin]
increase of 8-OHdG (fluorescence intensity) relative to vehicle [1]: 1.5 fold | increase of dihydropyridine-MDA-lysine adducts (fluorescence intensity) relative to vehicle [1]: 1.6 fold

From patent US20210267978A1, “NANOPARTICLE FORMULATIONS OF IKE AND METHODS OF USE THEREOF” (The Trustees of Columbia University in the City of New York, priority 2018, published 2021)
